Where two headings read alike, the source gives them in different places. Non-standard residues stand in square brackets, D forms with d. Residues, ends and D or L forms follow the SMILES beside them.
Legend:
[1] = counter-ions studied during the initial salt screening; cited from earlier work
[2] = Exposure of amorphous salts to humidity (saturated NaCl solution, 75% RH at room temperature) for stability assessment; format: physicochemical; conditions: for behaviour on exposure to 75% RH: a week of exposure (repeat)
Excerpt: Although amorphous, salts that were produced earlier were exposed to Humidity through saturated NaCl solution (75% RH at room temperature) for stability assessment.
Other salts of SBT-020 that were made during the initial screening that were missing in Table 13 were exposed to 75% RH. The missing salts were Maleate, Salicylate, Tartarate (repeat), Succinate and Phosphate (repeat).

[3] = Qualitative solubility in water; format: physicochemical; conditions: at RT
Excerpt: No signs of acetic acid were observed.

Compound | pKa1 [1] | behaviour on exposure to 75% RH [2] | also measured
O=S(=O)(O)c1ccccc1 [Benzene sulfonic acid] | −2.8 |  | 
Br [Hydrobromic acid] | −8 |  | 
O=C(O)CC(O)C(=O)O (stereo not shown) [Malic acid] | 3.4 |  | pKa2 [1]: 5.2
N=C(N)NCCC[C@@H](NC(=O)[C@@H](N)Cc1ccccc1)C(=O)N[C@@H](Cc1ccccc1)C(=O)N[C@@H](CCCCN)C(N)=O [Tosylate] (H-F[dR]FK-NH2) |  |  | physical stability upon humidity exposure ([2]; saturated NaCl solution, 75% RH at room temperature, amorphous salts): demonstrated physical stability upon humidity exposure; physical stability upon humidity exposure ([2]; saturated NaCl solution, 75% RH at room temperature, amorphous salts, listed as tosylate): best stability under humidity exposure; solubility [3]: > 100 mg/mL
Phosphate |  | became wet, though they did not deliquesce even after a week | physical stability upon humidity exposure [2]: demonstrated physical stability upon humidity exposure
Tartarate |  | became wet, though they did not deliquesce even after a week | 
